The text below walks through data of US7270968B2, “PTH analogs for renal osteodystrophy and related uses” (The General Hospital Corporation, priority 2000, dated 2007).

Where two headings read alike, the source gives them in different places.

Assay [1] relates to OC14 cells. The assay can be described thus: Apoptosis by Hoechst 33258 DNA staining in OC cells. The format is cell-based, mouse. To be noted: 100 nM, 6 hr. Here is the method:
(§1) Cells plated on glass coverslips and maintained at 33° C. for 33 days were shifted to 39° C. for 5-7 days before addition of 100 nM hPTH(1-84) (B, D) or vehicle alone (A, C) for 6 hr. At the end of the incubations, cells were fixed and stained with Hoechst 33258 (A and B) or for TUNEL (C and D) (see Example 1). Arrows indicate apoptotic cells. 200× magnification.
(§2) The pyknotic fragmentation of nuclei typical of apoptotic cells was detected using Hoechst-33258 fluorescent dye (Sigma Co., St. Louis, Mo., U.S.A.). Briefly, cells were cultured on glass coverslips and maintained in culture at nonpermissive conditions for 4-6 days in (α-MEM supplemented with 2-5% of FBS and 1% PS. After exposure to the test hormones for 6 hr, culture medium was aspirated and cells were fixed in 4% paraformaldehyde in phosphate buffered solution and then stained with Hoechst-33258 ([…]) for 5 min at room temperature. Cells were washed and mounted with glycerol-PBS (9:1, v/v). The stained nuclei were visualized by fluorescence microscopy using DAPI filter. In some experiments, apoptotic cells were detected by the terminal deoxynucleotidyl transferase-mediated nick end labeling (TUNEL) reaction, using the In Situ Cell Death Detection Kit from Roche Molecular Biochemicals (Indianapolis, Ind., U.S.A.) following the manufacturer's instruction.

For assay [2], the system named is OC14 cells. Nature of the assay: Apoptosis by TUNEL assay in OC cells. The format is cell-based, mouse. To be noted: 100 nM, 6 hr. Here is the method: as §1, §2
The test system of assay [3] is OC14 cells. The assay can be described thus: Cell death by trypan blue staining in OC14 cells. The format is cell-based, mouse. Here is the method:
OC14 cells were plated, cultured at 33° C. for 3 days and then incubated at 39° C. for 5-7 days before addition of PTH peptides for a further 16 hr, followed by trypan blue staining (see Example 1). A) Human PTH 1-84 dose response, B) Response to hPTH(1-84), 100 nM and hPTH(39-84), 1000 nM, C) Response to [Tyr^34]hPTH(24-84), 100 nM, D) Caspase dependance (“C”=controls) The Caspase-3 inhibitor DEVD (“D”) was added 1 hr prior to addition of 100 nM hPTH(1-84) (“P”). Results are expressed as mean±SD of quadruplicate determinations of the percentage of nonvital trypan blue-stained cells. * p<0.05, ** p<0.01.
Briefly, cells were plated at 50,000 cells/well in 24-well dishes at 33° C. and shifted to nonpermissive conditions (39° C.) after 2 days. Cells were grown at 39° C. for an additional 4-6 days in α-MEM supplemented with 2.5% of FBS and 1% PS and then treated with different hormones for additional 16-18 hr. Non-adherent cells were combined with adherent cells that were released from the cultures with trypsin-EDTA, centrifuged and resuspended in 0.1% trypan blue solution.

The test system of assay [4] is Gs-linked PTH receptors. To be noted: F1 cells and osteoblastic subclones; cited from earlier work.
The next assay concerns C×43 expression. Nature of the assay: Connexin 43 immunocytochemical staining in OC cells. The class given is cell-based, mouse. The following applies: 100 nM, 2 hr. Here is the method: OC14 cells were plated on glass coverslips at 72,000 cells/cm^2, cultured at 33° C. for 2 days and then shifted at 39° C. for 3-5 days before stimulation with CPTHR ligands. OC14 cells were treated for 2 hr with (A) vehicle alone, (B) 100 nM hPTH(1-84) or (C) 1000 nm hPTH(39-84). Cells were fixed and stained for C×43 expression as described (see Example 1).
For Immunocytochemical analysis, cells were plated on glass chamber slides at 72,000 cells/cm^2, cultured for two days at 33° C. and then shifted for an additional 4-6 days at 39° C. Cells were treated with vehicle alone (0.1% TFA) or with the appropriate hormone for the time indicated. The immunocytochemical staining was performed as previously described (Kato, Y., et al., J. Bone Miner. Res. 12:2014-2023 (1997)). Briefly, cells were fixed in 3% paraformaldehyde/2% sucrose in PBS and permeabilized for 5 min. with 0.05% Triton-X 100 diluted in PBS. The fixed slides were blocked in 5% BSA in TBS-T buffer for 2 h at room temperature. The cells then were incubated with a 1:125 dilution of anti-C×43 monoclonal antibody for 30 min at room temperature. The bound antibody was detected using a Vectastain ABC kit, followed by staining with VIP substrate according to manufacturer's instructions (Vector Laboratories, Burlingame, Calif.). Counter staining was performed using 0.5% methyl green. […]

Assay [5] relates to Gs-linked PTH receptors. Nature of the assay: Cyclic AMP accumulation in C cells (OC1, OC14, OC59). The class given is cell-based, mouse. To be noted: three C cells. Here is the method: The buffer then was rapidly aspirated, the plates were frozen in liquid nitrogen, and the frozen cells were subsequently thawed directly into 0.5 ml of 50 mM HCl. Cell-associated cAMP in the acid extracts was measured using an RIΛ kit (NUN Life Science Products, Boston, Mass., U.S.A.). Results were expressed as picomoles of cAMP produced per well over 15 min.

The next assay has as its system CPTHR. Nature of the assay: Downregulation of CPTHR binding in C59 cells after pretreatment. The format is cell-based, mouse. To be noted: preincubation 16 h. Here is the method:
Specific binding, is expressed as mean ± standard deviation of triplicates. * p<0.05, ** P<0.01.
For binding experiments, cells (100,000 cells/ml) were plated in 24-well dishes and cultured at 33° C. for 7 to 14 days. […] Receptor number was ascertained by Scatchard analysis, using [Tyr^34]hPTH-(19-84) or hPTH(1-84) as competing ligand. […] In some experiments, cells were washed with acidic buffer (50 mM glycine, 150 mM NaCl, pH 4.0) to remove residual bound ligand, prior to addition of radioligand.
(1 mM), forskolin (10 μM), insulin (100 ng/mL), IGF-1 ([…]) or dexamethasone (100 nM).

As to “hPTH(1-84): Recombinant human parathyroid hormone (1-84), the intact hormone”, the “Nuclear pyknosis and chromatin condensation, Hoechst dye 33258” value with OC14 cells [1] is “increased nuclear pylulosis ;aid chromatin condensation”. The “Apoptosis, TUNEL immunocytochemical assay” value in the assay on OC14 cells [2] is “Increased apoptosis”. Also, the “Concentration of maximal effect upon cell death” value with OC14 cells [3] (16 hr, trypan blue) is on record as 10 nM. Also, the EC50 in the assay on OC14 cells [3] (16 hr, trypan blue, read-out: EC50, effect upon cell death) was approximately 0.1 nM. For the same substance, in the assay on OC14 cells [3] (after 16 hr), the “Change in trypan blue-stained cells” value is on record as “doubling”. The results for the cAMP response entry in the assay with Gs-linked PTH receptors [4] and with Gs-linked PTH receptors [5] were “no detectable cAMP response” and “absence of a detectable cAMP response”, respectively. Also, the “Expression of C×43 by immunostaining” value in the assay with C×43 expression is “increased the expression of C×43”. The “Reduction of specific 125I-[Tyr34]hPTH(19-84) binding” value was found to be 19±5% with CPTHR (200 nM) and 66±7% in the assay with CPTHR (1000 nM).

By EC50 is commonly meant the concentration giving half of the maximal effect.
